Results on six compounds are retold here after patent publication US20080089884A1, “Compositions and methods for the modulation of detrusor activity” (priority 2006, published 2008).

One data set concerns urinary retention. The following applies: randomized placebo controlled trials; cited from earlier work.
For data set [1], the system named is primary rat detrusor muscle cultures. Type of data set: cell-based. The conditions noted are these: 1 μg/ml, bladder smooth muscle cells, data not shown. As for the experimental part: Tissue culture. Primary bladder muscle cultures were derived from newborn Sprague-Daley rats (Charles River; Wilmington, Mass.). The bladders were harvested, minced and added to 3 ml dissociation solution containing 0.5 mg/ml collagenase, 0.5 mg/ml elastase, 2 μg/ml DNAse (Worthington, Lakewood, N.J.) and 1 mg/ml soybean trypsin inhibitor (Gibco, Carlsbad, Calif.). The tissue was triturated at 15 minute intervals for 45 minutes using fire polished pasteur pipets. The cell solution was filtered through a 40 μm cell strainer and spun at 1000 rpm for 5 minutes. […] The cell number was determined and cells were plated at a density of 25,000 cells/cm2 in poly-L-lysine coated (P-6282, Sigma) 12-well plates (#3513, Corning, Corning, N.Y.) for biochemical and flow cytometry studies and on plastic 8-well chamber slides (#354108, BD Bioscience, San Jose, Calif.) for immunohistochemistry or TUNEL staining. […]
Apoptosis detection. […] Following treatment with rMIF, cells were analyzed using a kit (PF032, Calbiochem, San. Diego, Calif.) to separate apoptotic and necrotic cells on flow cytometry. […] Cells were analyzed using a Becton Dickenson FACS caliber flow cytometer with collection and analysis of data performed using Becton Dickinson CELLQuest software. TUNEL staining was detected using a kit (Roche) with DAB microscopy of cells grown 5-7 days in 8-well chamber slides. […]

Data set [2] relates to incontinence due to detrusor over activity with DHIC. The following applies: cited from earlier work.
The subject of data set [3] is bladder function, men with BPH. The conditions noted are these: cited from earlier work.
Data set [4] relates to MIF protein release from rat bladder muscle culture cells. Description: MIF ELISA of supernatants from rat bladder muscle cultures. The following applies: TNF-α 50 ng/ml for 24 hours, 3 separate cultures. Type of data set: cell-based. As for the experimental part: Tissue culture. Primary bladder muscle cultures were derived from newborn Sprague-Daley rats (Charles River; Wilmington, Mass.). The bladders were harvested, minced and added to 3 ml dissociation solution containing 0.5 mg/ml collagenase, 0.5 mg/ml elastase, 2 μg/ml DNAse (Worthington, Lakewood, N.J.) and 1 mg/ml soybean trypsin inhibitor (Gibco, Carlsbad, Calif.). The tissue was triturated at 15 minute intervals for 45 minutes using fire polished pasteur pipets. The cell solution was filtered through a 40 μm cell strainer and spun at 1000 rpm for 5 minutes. The supernatant was aspirated and cells resuspended in DMEM-F/12 medium containing 1% FBS, 1% N-2 supplement and 1% Penicillin/Streptomycin (Gibco). The cell number was determined and cells were plated at a density of 25,000 cells/cm2 in poly-L-lysine coated (P-6282, Sigma) 12-well plates (#3513, Corning, Corning, N.Y.) for biochemical and flow cytometry studies and on plastic 8-well chamber slides (#354108, BD Bioscience, San Jose, Calif.) for immunohistochemistry or TUNEL staining. Cells were maintained at 37° C. and 5% CO2 in a humidified chamber. The presence of 1% FBS was required for the success of initial plating. […]
MIF ELISA. […] MIF concentrations were calculated by extrapolation from a quadratic standard curve using human rMIF (range: 0-12 ng/ml, sensitivity: 150 pg/ml).

For data set [5], the system named is post-void residual in ambulatory older women. The following applies: estrogen users, 204 ambulatory women, mean age 79 years; cited from earlier work.

For `CC(C[N+](C)(C)C)OC(N)=O` (stereo not drawn) [Bethanechol chloride], in the data set on urinary retention, the clinically-relevant outcomes is reported as “does not improve clinically-relevant outcomes”.

Consider `C[C@@H]1C[C@@H]([C@H](O)CC2CC(=O)NC(=O)C2)C(=O)[C@@H](C)C1` [cyclohexamide], for which the “apoptosis or necrosis induced by cyclohexamide alone” value in data set [1] is listed as “does not induce apoptosis or necrosis”.

`CCN(CC)CC#CCOC(=O)C(O)(c1ccccc1)C1CCCCC1` (stereo not drawn) [oxybutynin]: the “decrease in daily incontinence frequency” value in data set [2] (intention-to-treat, 64 subjects on immediate-release oxybutynin started at 2.5 mg and titrated) was 68%. Also, the “evaluable subjects with no end-study leakage, impaired contractility” value in data set [2] (on oxybutynin, 9/19 subjects) is reported as 47%. Further, the “evaluable subjects with no end-study leakage, normal contractility” value in data set [2] (on oxybutynin, 25/35 subjects) is 71%. Also, the “subjects with no incontinence episodes on the end-study bladder diary” value in data set [2] (subjects randomized to oxybutynin) is listed as 34/64.

`CC(C)[N+](C)(CCOC(=O)C1c2ccccc2Oc2ccccc21)C(C)C` [propantheline]: the acute urinary retention in data set [3] is 5/6.

Consider TNF-α, for which the “increase in MIF protein levels detectable in the supernatant” value in data set [4] is given as “approximately 30%”.

Take estrogen: the “mean PVR” value in data set [5] was 39.3 mL.
